Measurements as given in ChEMBL document CHEMBL5331071, “Structure-activity relationship study of amidobenzimidazole derivatives as stimulator of interferon genes (STING) agonists” (Eur J Med Chem, 2023).
pEC50, pIC50: −log10 of the molar value. The source made the active and inactive calls. The calls are words filed in the database; no cut-off is given here.

Key:
[1] = molecular target: T1, Stimulator of interferon genes protein (Homo sapiens, UniProt Q86WV6); assay: Activation of STING signaling pathway in human PBMC cells assessed as increase in IL-6 mRNA level at 0.1 to 1 uM measured after 4 hrs by qRT-PCR analysis; type: cell-based; conditions: filed as agonist, dose 0.1-1 µM
T1 sequence (Q86WV6 whole entry): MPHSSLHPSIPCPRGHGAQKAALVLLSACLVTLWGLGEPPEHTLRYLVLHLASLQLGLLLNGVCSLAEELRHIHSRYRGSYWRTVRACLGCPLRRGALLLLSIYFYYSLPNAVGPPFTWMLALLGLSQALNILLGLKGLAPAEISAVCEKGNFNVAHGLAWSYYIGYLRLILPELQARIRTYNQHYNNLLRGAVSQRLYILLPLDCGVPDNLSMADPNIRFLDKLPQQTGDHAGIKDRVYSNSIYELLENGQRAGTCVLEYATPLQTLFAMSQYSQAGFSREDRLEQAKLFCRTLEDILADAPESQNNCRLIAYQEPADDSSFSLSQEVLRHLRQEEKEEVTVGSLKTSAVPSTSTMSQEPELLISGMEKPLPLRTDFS

[2] = molecular target: T1, Stimulator of interferon genes protein; assay: Activation of STING signalling pathway in human THP-1 cells assessed as increase in IL-6 level incubated for 4 hrs by ELISA method; type: cell-based; conditions: filed as agonist, dose 3.7-33.3 pg/ml
[3] = molecular target: T1, Stimulator of interferon genes protein; assay: Activation of STING signaling pathway in human wild type THP-1 cells assessed as increase in CXCL10 mRNA level at 50 uM measured after 4 hrs by qRT-PCR analysis; type: cell-based; conditions: filed as agonist
[4] = molecular target: T2, Stimulator of interferon genes protein (Mus musculus) (UniProt Q3TBT3); assay: Activation of STING in mouse RAW264.7 cells assessed as increase in CXCL10 expression at 10 to 100 uM incubated for 24 hrs by qRT-PCR analysis; type: cell-based; conditions: dose 10-100 µM
T2 sequence (whole entry): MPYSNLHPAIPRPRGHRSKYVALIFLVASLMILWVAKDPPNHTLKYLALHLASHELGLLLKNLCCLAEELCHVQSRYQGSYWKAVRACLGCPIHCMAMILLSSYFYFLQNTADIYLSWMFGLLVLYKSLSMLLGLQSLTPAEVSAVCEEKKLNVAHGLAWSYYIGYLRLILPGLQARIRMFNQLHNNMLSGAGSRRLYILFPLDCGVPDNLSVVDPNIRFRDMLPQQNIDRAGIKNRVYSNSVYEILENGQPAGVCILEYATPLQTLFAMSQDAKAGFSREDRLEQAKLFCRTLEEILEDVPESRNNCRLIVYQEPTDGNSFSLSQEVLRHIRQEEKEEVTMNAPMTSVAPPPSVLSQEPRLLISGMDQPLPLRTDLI

[5] = molecular target: T1, Stimulator of interferon genes protein; assay: Activation of STING signalling pathway in human THP-1 cells assessed as increase in TNF-alpha level incubated for 4 hrs by ELISA method; type: cell-based; conditions: filed as agonist, dose 3.7-33.3 pg/ml
[6] = molecular target: T1, Stimulator of interferon genes protein; assay: Activation of STING signalling pathway in human PBMC cells assessed as increase in IL-6 level incubated for 4 hrs by ELISA method; type: cell-based
[7] = molecular target: T1, Stimulator of interferon genes protein; assay: Activation of STING signaling pathway in human PBMC cells assessed as increase in CXCL10 mRNA level at 0.1 to 1 uM measured after 4 hrs by qRT-PCR analysis; type: cell-based; conditions: filed as agonist, dose 0.1-1 µM
[8] = molecular target: T1, Stimulator of interferon genes protein; assay: Activation of STING signalling pathway in human wild type THP-1 cells assessed as increase in TBK1 phosphorylation at 10 uM measured after 1 hr by Western blot analysis; type: cell-based; conditions: filed as agonist
[9] = molecular target: T1, Stimulator of interferon genes protein; assay: Activation of STING signalling pathway in human THP-1 cells assessed as increase in CXCL10 level incubated for 4 hrs by ELISA method; type: cell-based; conditions: filed as agonist, dose 0.046-0.421 pg/ml
[10] = molecular target: T1, Stimulator of interferon genes protein; assay: Activation of STING signalling pathway in human wild type THP-1 cells assessed as increase in IRF3 phosphorylation at 10 uM measured after 1 hr by Western blot analysis; type: cell-based; conditions: filed as agonist
[11] = molecular target: T1, Stimulator of interferon genes protein; assay: Activation of STING signalling pathway in human PBMC cells assessed as increase in STING phosphorylation at 10 uM measured after 1 hr by Western blot analysis; type: cell-based; conditions: filed as agonist
[12] = molecular target: T3, Stimulator of interferon genes protein (Mus musculus, UniProt Q3TBT3); assay: Agonist activity at STING in mouse RAW-Lucia ISG cells by luciferase gene reporter assay; type: cell-based
T3 sequence (Q3TBT3 whole entry): T2 sequence (whole entry)

[13] = molecular target: T2, Stimulator of interferon genes protein (Mus musculus); assay: Activation of STING in mouse RAW264.7 cells assessed as increase in IRF3 phosphorylation at 10 to 100 uM incubated for 4 hrs by Western blot analysis; type: cell-based; conditions: dose 10-100 µM
THP1-Dual = assay: Cytotoxicity against human THP1-Dual habouring STING assessed as inhibition of cell growth by MTS assay; type: functional, cell-based
[14] = molecular target: T1, Stimulator of interferon genes protein; assay: Activation of STING signaling pathway in human PBMC cells assessed as increase in IFN-beta mRNA level at 0.1 to 1 uM measured after 4 hrs by qRT-PCR analysis; type: cell-based; conditions: filed as agonist, dose 0.1-1 µM
[15] = molecular target: T1, Stimulator of interferon genes protein; assay: Activation of STING signalling pathway in human PBMC cells assessed as increase in IRF3 phosphorylation at 10 uM measured after 1 hr by Western blot analysis; type: cell-based; conditions: filed as agonist
[16] = Metabolic stability in Sprague-Dawley rat plasma assessed as compound remaining measured after 2 hrs by LC-MS/MS analysis; type: ADME, cell-free; conditions: read-out: Stability
[17] = molecular target: T1, Stimulator of interferon genes protein; assay: Activation of STING signalling pathway in human PBMC cells assessed as increase in TBK1 phosphorylation at 10 uM measured after 1 hr by Western blot analysis; type: cell-based; conditions: filed as agonist
[18] = molecular target: T1, Stimulator of interferon genes protein; assay: Agonist activity at STING in human THP1-Dual cells incubated for 20 hrs by Quanti-luc reagent based assay; type: cell-based
[19] = molecular target: T1, Stimulator of interferon genes protein; assay: Activation of STING signalling pathway in human wild type THP-1 cells assessed as increase in STING phosphorylation at 10 uM measured after 1 hr by Western blot analysis; type: cell-based; conditions: filed as agonist
[20] = molecular target: T1, Stimulator of interferon genes protein; assay: Activation of STING signaling pathway in human wild type THP-1 cells assessed as increase in IFN-beta mRNA level at 50 uM measured after 4 hrs by qRT-PCR analysis; type: cell-based; conditions: filed as agonist
[21] = molecular target: T1, Stimulator of interferon genes protein; assay: Activation of STING signalling pathway in human PBMC cells assessed as increase in IFN-beta level incubated for 4 hrs by ELISA method; type: cell-based
[22] = molecular target: T2, Stimulator of interferon genes protein (Mus musculus); assay: Activation of STING in mouse RAW264.7 cells assessed as increase in IL-6 expression at 10 to 100 uM incubated for 24 hrs by qRT-PCR analysis; type: cell-based; conditions: dose 10-100 µM
[23] = molecular target: T1, Stimulator of interferon genes protein; assay: Activation of STING signalling pathway in human THP1-Dual cells assessed as increase in IRF-luciferase activation incubated for 24 hrs by QUANTI-luc assay; type: cell-based
[24] = molecular target: T1, Stimulator of interferon genes protein; assay: Agonist activity at STING in human […] KO-STING cells incubated for 20 hrs by Quanti-luc reagent based assay; type: cell-based, THP1-Dual KO-STING
[25] = molecular target: T1, Stimulator of interferon genes protein; assay: Activation of STING signalling pathway in human wild type THP-1 cells assessed as increase in IFN-beta secretion incubated for 4 hrs by ELISA method; type: cell-based
[26] = molecular target: T1, Stimulator of interferon genes protein; assay: Activation of STING signalling pathway in human PBMC cells assessed as increase in CXCL10 level incubated for 4 hrs by ELISA method; type: cell-based
[27] = molecular target: T1, Stimulator of interferon genes protein; assay: Activation of STING signaling pathway in human wild type THP-1 cells assessed as increase in IL-6 mRNA level at 50 uM measured after 4 hrs by qRT-PCR analysis; type: cell-based; conditions: filed as agonist
[28] = Metabolic stability in Sprague-Dawley rat plasma assessed as compound remaining measured after 1 hr by LC-MS/MS analysis; type: ADME, cell-free; conditions: read-out: Stability
[29] = molecular target: T2, Stimulator of interferon genes protein (Mus musculus); assay: Activation of STING in mouse RAW264.7 cells assessed as increase in TBK1 phosphorylation at 10 to 100 uM incubated for 4 hrs by Western blot analysis; type: cell-based; conditions: dose 10-100 µM
[30] = molecular target: T1, Stimulator of interferon genes protein; assay: Activation of STING signalling pathway in human THP1-Dual cells assessed as increase in NF-kappaB-SEAP activation incubated for 24 hrs by QUANTI-Blue reagent based assay; type: cell-based
[31] = molecular target: T2, Stimulator of interferon genes protein (Mus musculus); assay: Activation of STING in mouse RAW264.7 cells assessed as increase in IFN-beta expression at 10 to 100 uM incubated for 24 hrs by qRT-PCR analysis; type: cell-based; conditions: dose 10-100 µM
[32] = Cytotoxicity against human THP1-Dual KO-STING cells assessed as inhibition of cell growth by MTS assay; type: functional, cell-based
[33] = molecular target: T1, Stimulator of interferon genes protein; assay: Activation of STING signalling pathway in human PBMC cells assessed as increase in STING phosphorylation at 55.68 uM measured after 1 hr by Western blot analysis; type: cell-based

With `CCn1nc(C)cc1C(=O)Nc1nc2cc(C(N)=O)cc(OC)c2n1NCCCC(=O)NCc1ccc(F)cc1` the Activity [1] was “Active”, the Activity [2] was “Dose-Dependent Effect” and the Activity [3] was “Active”. The Activity [4] was “inactive”, the Activity [5] was “Dose-Dependent Effect” and the pEC50 [6] was 7.52. For the same compound, the Activity ([6]; filed as agonist, dose 0.006-0.16 µM) was “Dose-Dependent Effect”, the Activity [7] was “Active” and the Activity [8] was “Active”. For the same compound, the Activity [9] was “Dose-Dependent Effect”, the Activity [10] was “Active” and the Activity [11] was “Active”. For the same compound, the pEC50 [12] was < 4.00, the Activity [13] was “inactive” and the pIC50 (THP1-Dual) was < 4.00. The Activity [14] was “Active”, the Activity [15] was “Active” and the remaining at 2 h [16] was 60.5%. The Activity [17] was “Active”, the pEC50 [18] was 5.80 and the Activity [19] was “Active”. For the same compound, the Activity [20] was “Active”, the pEC50 [21] was 6.57 and the Activity ([21]; filed as agonist, dose 0.137-1.235 µM) was “Dose-Dependent Effect”. The Activity [22] was “inactive”, the pEC50 [23] was 5.49 and the Activity ([23]; filed as agonist) was “Dose-Dependent Effect”. The pEC50 [24] was < 4.00, the pEC50 [25] was 5.32 and the Activity ([25]; filed as agonist) was “Dose-Dependent Effect”. For the same compound, the pEC50 [26] was 6.92, the Activity ([26]; filed as agonist, dose 0.046-0.412 µM) was “Dose-Dependent Effect” and the Activity [27] was “Active”. For the same compound, the remaining at 1 h [28] was 78.7%, the Activity [29] was “inactive” and the pEC50 [30] was 5.26. The Activity ([30]; filed as agonist) was “Dose-Dependent Effect”, the Activity [31] was “inactive” and the pIC50 [32] was < 4.00. The Activity [33] was “inactive”.
